Target: Aβ–fibrinogen interaction (Homo sapiens, UniProt P05067)
Assay: AlphaLISA
Assay type: binding

Sequence of Aβ–fibrinogen interaction (P05067 672-713): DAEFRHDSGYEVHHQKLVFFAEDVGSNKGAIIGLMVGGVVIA

CSc1ccc(/C=C2/C(C)=C(CC(=O)O)c3cc(F)ccc32)cc1 [sulindac sulfide]
Inhibition of the Aβ–fibrinogen interaction in AlphaLISA (in words): no effect
